Test results as given in patent US11519859B2, “Rhodol-based thallium sensors for high-throughput screening of potassium channels” (priority 2018, dated 2022).
Where “and” joins values, the source holds several entries; their conditions need not be identical. Equal values may be shown once.

What was measured:
[1] = Determination of photochemical properties of saponified dyes; assay type: physicochemical; settings: after saponification, 150 mM KCl, 10 mM HEPES, 50 μM EDTA, pH = 7.22; for ε (molar absorptivity): at λmax
Method: Evaluation of the photochemical properties of the active Thallium sensing species was accomplished by saponifying 10 μL of each pro-dye stock solution by incubating with 90 μL of 0.1 M KOH for 20 min at 37° C. with the exception of 8b which was treated with 1% NH4OH for 1 h at 37° C. The saponified compounds were diluted into 150 mM KCl buffered with 10 mM HEPES, pH=7.22 with 50 μM of EDTA. All photochemical measurements were taken in this buffer. Absorbance and fluorescence emission spectra were recorded on a Molecular Devices Spectromax M5 using polystyrene cuvettes with path length=1 cm at 23° C. Molar absorptivities are reported for λmax. The emission wavelengths monitored for recording excitation spectra, the excitation wavelengths used for recording emission spectra, and the corresponding emission cutoff filters used are listed in Table 2 below, and representative excitation and emission spectra are shown in FIG. 7.
To determine the in vitro photochemical properties of the active Tl^+ sensing species, 8a-m were treated with base to remove the acetoxymethyl esters and aryl acetate and then diluted into 10 mM HEPES buffered 150 mM KCl with 50 μM EDTA at pH=7.22.

[2] = test system: HEK-293 cells co-expressing GIRK1 and GIRK2; assay: Fold increase in dye fluorescence in Tl+ flux assay with ML297 concentration series; assay type: cell-based
Description: ML297 concentration response curves—In general, all concentration-response data were collected on a WaveFront Biosciences Panoptic 2. Thallos treated cells were imaged using 482/35 nm excitation and 536/40 nm emission filters. 8c treated cells were imaged using 529/24 nm excitation and 565/24 nm emission filters (unless otherwise noted). FluxOR Red treated cells were imaged using 544/24 nm excitation and 593/40 nm emission filters (all filters purchased from Semrock, Rochester, N.Y.). FluxOR Red reagent was prepared according to the manufacturer's procedure. 5 μM of 8c was used for dye loading for all conditions.
FluxOR Red procedure with background suppressor. The manufacturer's procedure was followed with the exceptions that the dye loading solution was replaced with 20 μL of assay buffer, solutions of ML297 were prepared in assay buffer plus background suppressor, 20 μL of compound solution was added and 10 μL stimulus buffer (basal) was added according to the general assay protocol described above.
FluxOR Red procedure without background suppressor. The FluxOR Red manufacturer's procedure was followed except the background suppressor was replaced by H2O in all buffers.
Bicarbonate buffer with Allura Red AC. […]
The fluorescence intensity values of the first 6 time points for each well were averaged and the fluorescence intensity for all time points in the well was divided by this value to provide F/Fo for each time point. The average F/Fo of the vehicle control was then subtracted from each curve and the normalized, control subtracted fluorescence intensity value was sampled at a time point several seconds after Tl^+ addition. […] Fold increases in fluorescence reported in the main paper were calculated by averaging F/Fo between 100 and 110 s after Tl^+ addition. […]
The performance of 8c was evaluated in a Tl^+ flux assay to generate a concentration response curve (CRC) of the GIRK activator ML297. […] Normalized, control subtracted fluorescence intensity values were sampled along the curves following Tl^+ addition at each concentration and a CRC was fit using GraphPad Prism (FIG. 3B).

[3] = test system: HEK-293 cells co-expressing GIRK1 and GIRK2; settings: dye loading 1 h; 10 μM ML297; 1 mM Tl^+ stimulus; 2 mM Allura Red AC; n = 6
Method: HEK-293 cells co-expressing GIRK1 and GIRK2 were cultured to 80% confluence in a T75 flask (Techno Plastic Products, Trasadingen, CH) at 37° C. and 5% CO2 in medium consisting of Minimal Essential Medium (Cellgro, Manassas, Va.) containing 1× Glutagro (Cellgro, Manassas, Va.) and 10% (v/v) heat-inactivated fetal bovine serum (Life Technologies, Carlsbad, Calif.). The cells were dislodged by treatment with TrypLE (Gibco/Life Technologies, Carlsbad, Calif.), diluted in medium, and plated on clear bottomed, black-walled, amine coated 384 well plates (BD Biosciences, Billerica, Mass.) at a density ˜20,000 cells per well. The plated cells were incubated overnight at 37° C. and 5% CO2 and used for the assay the next day.
Dye loading solutions of Thallos were prepared by dissolving a 25 μg aliquot in 30 μL of 6.7% Pluoronic F-127 (w/v) in DMSO and diluting the resulting solution 1:1000 into assay buffer. Culture medium was removed and replaced with 20 μL of dye loading buffer and incubated in the dark at room temperature for 1 h.
Assay—Assays were conducted on a WaveFront Biosciences Panoptic 1 or 2 (WaveFront Biosciences, Franklin, Tenn.) as indicated. Dye loading solutions were removed and replaced with assay buffer immediately before imaging unless otherwise noted. 10 s following commencement of plate imaging, 20 μL of compound at 2.5× concentration in assay buffer was added and incubated for 120 s at which point 10 μL of Tl^+ at 5× concentration in stimulus buffer (125 mM NaHCO3, 1.8 mM CaSO4, 1 mM MgSO4, 5 mM glucose, 10 mM HEPES, pH 7.4, and T12SO4), and images taken for the following 120 s.
1 mM of T12SO4 (final concentration) was used for stimulus. Assay and stimulus buffers were supplemented with 2 mM of Allura Red AC. […] On/off ratios were calculated by dividing the fluorescence intensity after saturation following Tl^+ addition by the fluorescence intensity immediately after compound addition (n=6).

[4] = Compound storage as DMSO stock solutions; assay type: physicochemical; settings: 10 mM stock solutions in DMSO at −20° C.
Method: Compounds 8a-m were dissolved in DMSO and stored as 10 mM stock solutions at −20° C. […] To prevent this, dry aliquots of 8a were prepared and dissolved in DMSO immediately before use.

Row | Structure (SMILES) | λem (fluorescence emission maximum) [1] [nm] | λmax (absorption maximum) [1] [nm] | ε (molar absorptivity) [1] [M⁻¹ cm⁻¹] | fold increase in fluorescence at the highest ML297 concentration ([2]; FluxOR Red kit procedure with background suppressor, 10 μM ML297, F/Fo 100-110 s after Tl^+) [fold] | fold increase in fluorescence at the highest ML297 concentration ([2]; FluxOR Red kit procedure without background suppressor) [fold] | fold increase in fluorescence ([2]; bicarbonate stimulus buffer, 500 μM Tl^+, no-wash, 1 mM Allura Red AC) [fold] | on/off (Tl^+ flux assay), maximum fold increase in fluorescence after Tl^+ addition [3] | stability on storage [4]
1 | COc1cc(NC(=O)c2ccc3c(c2)C(=O)OC32c3ccc(OC(C)=O)cc3Oc3cc(N(C)C)ccc32)ccc1N(CC(=O)OCOC(C)=O)CC(=O)OCOC(C)=O (stereo not drawn) [Compound 8c, bis(acetoxymethyl) 2,2′-((4-(3′-acetoxy-6′-(dimethylamino)-3-oxo-3H-spiro[isobenzofuran-1,9′-xanthene]-5-carboxamido)-2-methoxyphenyl)azanediyl)diacetate] | 551 | 521 | 56000 | 3.09±0.004 | 2.87±0.004 | 3.40±0.009 | 4.21 fold and 4.21 ± 0.04 fold | 
2 | COc1cc(NC(=O)c2ccc3c(c2)C(=O)OC32c3ccc(N)cc3Oc3cc(OC(C)=O)ccc32)ccc1N(CC(=O)OCOC(C)=O)CC(=O)OCOC(C)=O (stereo not drawn) [Compound 8a, bis(acetoxymethyl) 2,2′-((4-(3′-acetoxy-6′-amino-3-oxo-3H-spiro[isobenzofuran-1,9′-xanthen]-5-ylcarboxamido)-2-methoxyphenyl)azanediyl)diacetate] | 520 | 496 | 57000 |  |  |  | 3.02 ± 0.08 fold | appeared to undergo transacetylation
